Values of other authors in patent US9198935B2, “Hydrogen peroxide-based skin disinfectant” (VIROX TECHNOLOGIES INC., priority 2004, dated 2015).
Like-named read-outs stand apart in the source and are kept apart here.

Test system: Staphylococcus aureus

OO [hydrogen peroxide]
time to achieve a greater than 6 log reduction in Staphylococcus aureus (25% w/w aqueous solution of hydrogen peroxide): 20 seconds | time to achieve a greater than 6 log reduction in Staphylococcus aureus (solution containing 3% w/w hydrogen peroxide): 20 minutes
